The test system of assay [1] is Plasmodium falciparum. Description: Antimalarial activity against chloroquine-sensitive Plasmodium falciparum 3D7 infected in O-positive erythrocytes assessed as parasite growth inhibition after 72 hrs by DNA staining-based assay. The assay is classed as functional, organism-based. The conditions noted are these: 3D7, 72 h.
The subject of a further assay is Raji. Nature of the assay: Cytotoxicity against human Raji cells after 72 hrs by celltiter-glo assay. The assay is classed as cell-based.
A further assay concerns BJ. Description: Cytotoxicity against human BJ cells after 72 hrs by celltiter-glo assay. The assay is classed as cell-based. A general note: In ATP-based viability assays light output follows the ATP content of the culture.
The next assay concerns HepG2. Description: Cytotoxicity against human HepG2 cells after 72 hrs by celltiter-glo assay. The assay is classed as cell-based. The conditions noted are these: HepG2, 72 h.
Assay [2] relates to Plasmodium falciparum. Nature of the assay: Antimalarial activity against chloroquine and pyrimethamine-resistant Plasmodium falciparum K1 infected in O-positive erythrocytes assessed as parasite growth inhibition after 72 hrs by DNA staining-based assay. In kind it is functional, organism-based. Particulars: K1, 72 h.
For a further assay, the system named is HEK293. Nature of the assay: Cytotoxicity against HEK293 cells after 72 hrs by celltiter-glo assay. In kind it is cell-based. The conditions noted are these: Homo sapiens, HEK293, 72 h.

In general, EC50 refers to the concentration giving half of the maximal effect.

Turning to `C/C1=C/C2=C[C@H](C)C[C@@]23O[C@]2(CC(C)(C)[C@@H](OC(C)C)[C@@H]2C1=O)[C@@H](C)C3=O`, the EC50 in the assay on Plasmodium falciparum [1] came out at 15 µM; in the assay with Raji it was 26 µM; with BJ it was 26 µM; in the assay on HepG2, 26 µM; in the assay with Plasmodium falciparum [2], 15 µM; in the assay with HEK293, 26 µM.
In the case of `C=C1CC[C@H]2[C@@H](c3c(C)c(OC(C)=O)c4c(c31)C(=O)C(C)C4)C2(C)C` (stereo partly drawn), the EC50 with Plasmodium falciparum [1] is 15 µM; in the assay with Raji, 26 µM; in the assay with BJ, 26 µM; with HepG2, 26 µM; in the assay with Plasmodium falciparum [2], 6.31 µM; in the assay with HEK293, 26 µM.
Take `C[C@@H]1CC[C@H]2CC3=C(C(=O)O)CC[C@@]31C2(C)C`: the EC50 in the assay with Plasmodium falciparum [1] was 15 µM; in the assay with Raji, 26 µM; in the assay with HepG2, 26 µM; with Plasmodium falciparum [2], 15 µM; in the assay on HEK293 it was 26 µM.
In the case of `C/C1=C/[C@]23O[C@H]2[C@H](C)C=C3C(=O)[C@@](C)(O)C(=O)CC(C)(C)/C=C/C1=O`, the EC50 was found to be 15 µM in the assay with Plasmodium falciparum [1]; 26 µM with Raji; 26 µM in the assay with BJ; 26 µM with HepG2; 15 µM with Plasmodium falciparum [2]; 26 µM with HEK293.
On to `C=C1/C=C/C(C)(C)CC2=C(C)C(=O)[C@]3(C[C@@H](C)C=C3/C=C\1C)O2`, for which the concentration for a half-maximal effect (EC50) in the assay with Plasmodium falciparum [1] amounted to 15 µM; in the assay on Raji it was 26 µM; with BJ, 26 µM; in the assay on HepG2, 26 µM; in the assay on Plasmodium falciparum [2], 15 µM; in the assay on HEK293 it was 26 µM.
Regarding `CC1=C2CC(C)(C)/C=C/C/C(C)=C\C3=C[C@H](C)C[C@]3(O2)C1=O`, the EC50 with Plasmodium falciparum [1] worked out at 15 µM; in the assay on Raji it was 26 µM; in the assay with BJ, 26 µM; in the assay with HepG2, 26 µM; with Plasmodium falciparum [2], 15 µM; in the assay with HEK293 it was 26 µM.
With `C/C1=C/C2=C[C@H](C)C[C@@]23O[C@]2(CC(C)(C)C[C@@H]2[C@@]1(O)C(F)(F)F)[C@@H](C)C3=O`, the EC50 was found to be 15 µM with Plasmodium falciparum [1]; 26 µM with Raji; 26 µM with BJ; 26 µM in the assay with HepG2; 15 µM in the assay with Plasmodium falciparum [2]; 26 µM in the assay with HEK293.
Regarding `CC1=C2CC(C)(C)/C=C/C(=O)/C(C)=C\C3=C[C@H](C)C[C@]3(O2)[C@@]1(O)C(F)(F)F`, the EC50 in the assay with Plasmodium falciparum [1] stood at 15 µM; in the assay with Raji it was 26 µM; with BJ it was 26 µM; in the assay on HepG2, 26 µM; with Plasmodium falciparum [2] it was 15 µM; with HEK293, 26 µM.
Turning to `CC1=C2CC(C)(C)/C=C/C(=O)/C(C)=C\C3=C[C@H](C)C[C@]3(O2)[C@]1(C)O`, the EC50 in the assay with Plasmodium falciparum [1] amounted to 0.624 µM; in the assay on Raji it was 26 µM; with BJ, 26 µM; in the assay on HepG2 it was 26 µM; with Plasmodium falciparum [2], 15 µM; in the assay on HEK293 it was 26 µM.
`CC1=C2CC(C)(C)[C@@H](C)CC(=O)/C(C)=C\C3=C[C@H](C)C[C@]3(O2)C1=O`: the EC50 was found to be 15 µM in the assay on Plasmodium falciparum [1]; 26 µM with Raji; 26 µM with BJ; 26 µM in the assay with HepG2; 15 µM in the assay on Plasmodium falciparum [2]; 26 µM with HEK293.
Take `CC1=C2CC(C)(C)/C=C/C(=O)/C(C)=C\C3=C[C@H](C)C[C@]3(O2)[C@@]1(O)C#N`: the EC50 with Plasmodium falciparum [1] was 15 µM; with Raji it was 21.2 µM; in the assay with BJ, 26 µM; in the assay with HepG2, 26 µM; with Plasmodium falciparum [2] it was 15 µM; with HEK293 it was 26 µM.
For `C/C1=C/C2=C[C@H](C)C[C@@]23O[C@]2(CC(C)(C)C[C@@H]2[C@@]1(O)C#N)[C@@H](C)C3=O`, the EC50 is 15 µM in the assay with Plasmodium falciparum [1]; 26 µM with Raji; 26 µM in the assay on BJ; 26 µM in the assay with HepG2; 15 µM in the assay with Plasmodium falciparum [2]; 8.66 µM in the assay on HEK293.
`CC1=C2CC(C)(C)[C@@H]3C=C(OC3)/C(C)=C\C3=C[C@H](C)C[C@]3(O2)C1=O`: the EC50 with Plasmodium falciparum [1] was determined as 15 µM; in the assay on Raji it was 26 µM; in the assay on BJ, 26 µM; in the assay with HepG2, 26 µM; in the assay on Plasmodium falciparum [2], 15 µM; with HEK293, 26 µM.
For the compound `CC1=C2CC(C)(C)/C=C/[C@H](O)/C(C)=C\C3=C[C@H](C)C[C@]3(O2)C1=O`, the EC50 in the assay with Plasmodium falciparum [1] was 9.23 µM; in the assay on Raji it was 26 µM; with BJ it was 10.6 µM; in the assay with HepG2, 18.7 µM; in the assay with Plasmodium falciparum [2], 15 µM; with HEK293, 26 µM.
As for `CC(=O)O[C@H]1/C=C/C(C)(C)CC2=C(C)C(=O)[C@]3(C[C@@H](C)C=C3/C=C\1C)O2`, the EC50 in the assay with Plasmodium falciparum [1] worked out at 3.2 µM; in the assay with Raji it was 26 µM; in the assay with BJ it was 26 µM; in the assay with HepG2 it was 26 µM; with Plasmodium falciparum [2] it was 15 µM; in the assay with HEK293, 26 µM.
As to `CC1=C2CC(C)(C)/C=C/[C@@H](O)/C(C)=C\C3=C[C@H](C)C[C@]3(O2)C1=O`, the EC50 was 0.744 µM in the assay with Plasmodium falciparum [1]; 26 µM in the assay with Raji; 26 µM with BJ; 26 µM with HepG2; 15 µM in the assay with Plasmodium falciparum [2]; 26 µM in the assay with HEK293.
As to `CC(=O)O[C@@H]1/C=C/C(C)(C)CC2=C(C)C(=O)[C@]3(C[C@@H](C)C=C3/C=C\1C)O2`, the EC50 in the assay with Plasmodium falciparum [1] stood at 1.63 µM; in the assay on Raji, 26 µM; in the assay on BJ it was 26 µM; in the assay with HepG2, 26 µM; in the assay with Plasmodium falciparum [2], 15 µM; in the assay with HEK293, 26 µM.
For the compound `CC(=O)O[C@H]1/C=C/C(C)(C)CC2=C(C)[C@@H](OC(C)=O)[C@]3(C[C@@H](C)C=C3/C=C\1C)O2`, the EC50 came out at 5.68 µM in the assay with Plasmodium falciparum [1]; 26 µM with Raji; 26 µM in the assay on BJ; 26 µM in the assay with HepG2; 15 µM in the assay with Plasmodium falciparum [2]; 26 µM in the assay with HEK293.
Turning to `CC1=C2CC(C)(C)/C=C/[C@H](OC(=S)n3ccnc3)/C(C)=C\C3=C[C@H](C)C[C@]3(O2)C1=O`, the EC50 in the assay with Plasmodium falciparum [1] was determined as 5.67 µM; with Raji, 26 µM; in the assay with BJ it was 26 µM; in the assay with HepG2, 26 µM; in the assay on Plasmodium falciparum [2], 5.85 µM; with HEK293 it was 26 µM.
For the compound `CC1=C2CC(C)(C)/C=C/[C@H](OC(=S)Sc3ccccc3)/C(C)=C\C3=C[C@H](C)C[C@]3(O2)C1=O`, the EC50 in the assay with Plasmodium falciparum [1] was 15 µM; in the assay with Raji, 26 µM; in the assay on BJ it was 26 µM; in the assay with HepG2, 26 µM; in the assay with Plasmodium falciparum [2], 15 µM; in the assay with HEK293, 26 µM.
As to `C/C1=C/C2=C[C@H](C)C[C@@]23O[C@]2(CC(C)(C)C[C@@H]2[C@@H]1OC(=S)Sc1ccccc1)[C@@H](C)C3=O`, the EC50 in the assay with Plasmodium falciparum [1] came to 8.88 µM; in the assay on Raji, 26 µM; in the assay on BJ, 26 µM; in the assay with HepG2, 26 µM; with Plasmodium falciparum [2], 5.69 µM; in the assay on HEK293, 17.8 µM.
As to `C/C1=C/C2=C[C@H](C)C[C@@]23O[C@]2(CC(C)(C)[C@@H](Br)[C@@H]2C1=O)[C@](C)(Br)C3=O`, the EC50 in the assay with Plasmodium falciparum [1] came to 15 µM; in the assay on Raji, 4.38 µM; with BJ, 26 µM; with HepG2 it was 26 µM; in the assay with Plasmodium falciparum [2], 15 µM; with HEK293, 26 µM.
Turning to `C/C1=C/C2=C[C@H](C)CC2(Br)C(=O)[C@@]2(C)O[C@@H]([C@@H](Br)C1=O)C(C)(C)CC2=O` (stereo partly drawn), the EC50 in the assay on Plasmodium falciparum [1] came out at 15 µM; in the assay with Raji, 26 µM; in the assay with BJ, 26 µM; in the assay with HepG2, 26 µM; in the assay with Plasmodium falciparum [2], 15 µM; in the assay on HEK293, 26 µM.
Take `COc1ccc(/C2=C\C(=O)/C(C)=C\C3=C[C@H](C)C[C@@]34OC(=C(C)C4=O)CC2(C)C)cc1`: the EC50 was 15 µM in the assay on Plasmodium falciparum [1]; 26 µM with Raji; 26 µM with BJ; 26 µM with HepG2; 15 µM in the assay with Plasmodium falciparum [2]; 26 µM in the assay with HEK293.
Consider `CC1=C2CC(C)(C)/C(c3ccccc3)=C/C(=O)/C(C)=C\C3=C[C@H](C)C[C@]3(O2)C1=O`, for which the EC50 in the assay with Plasmodium falciparum [1] was determined as 15 µM; in the assay on Raji, 26 µM; in the assay with BJ, 26 µM; in the assay with HepG2, 26 µM; in the assay on Plasmodium falciparum [2], 15 µM; in the assay with HEK293 it was 26 µM.
Turning to `C/C1=C/C2=C[C@H](C)C[C@@]23O[C@]2(CC(C)(C)[C@@H](O)[C@@H]2C1=O)[C@@H](C)C3=O`, the EC50 with Plasmodium falciparum [1] came to 15 µM; with Raji it was 26 µM; with BJ, 10.4 µM; in the assay with HepG2 it was 26 µM; in the assay on Plasmodium falciparum [2] it was 15 µM; in the assay with HEK293 it was 26 µM.
With `CO[C@H]1[C@@H]2C(=O)/C(C)=C\C3=C[C@H](C)C[C@@]34O[C@]2(CC1(C)C)[C@@H](C)C4=O`, the EC50 in the assay with Plasmodium falciparum [1] stood at 15 µM; in the assay on Raji, 26 µM; with BJ, 26 µM; in the assay on HepG2 it was 26 µM; in the assay on Plasmodium falciparum [2] it was 15 µM; in the assay on HEK293 it was 26 µM.
On to `C/C1=C/C2=C[C@H](C)C[C@@]23O[C@]2(CC(C)(C)C4CC1(ON4)O2)C(C)C3=O` (stereo partly drawn), for which the EC50 was 15 µM in the assay on Plasmodium falciparum [1]; 26 µM in the assay on Raji; 26 µM with BJ; 26 µM in the assay with HepG2; 15 µM in the assay with Plasmodium falciparum [2]; 26 µM with HEK293.
In the case of `C/C1=C/C2=C[C@H](C)C[C@@]23O[C@]2(CC(C)(C)[C@@H](Nc4ccccc4)[C@@H]2C1=O)[C@@H](C)C3=O`, the EC50 was determined as 8.88 µM in the assay on Plasmodium falciparum [1]; 26 µM with Raji; 12.6 µM with BJ; 26 µM with HepG2; 5.58 µM in the assay on Plasmodium falciparum [2]; 26 µM with HEK293.

Source of the values: ChEMBL document CHEMBL2401682, “Evaluation of Jatropha isabelli natural products and their synthetic analogs as potential antimalarial therapeutic agents” (Eur J Med Chem, 2013).
